Assay results published in paper PMC10202292, “The exquisite specificity of human protein arginine methyltransferase 7 (PRMT7) toward Arg-X-Arg sites” (PLOS ONE, 2023).
Like-named read-outs stand apart in the source and are kept apart here.

What was measured:
[1] = target: T1, GST-HsPRMT7 (Homo sapiens, UniProt Q9NVM4); experiment: Michaelis-Menten kinetics of peptide substrate methylation (P81 phosphocellulose paper assay); format: biochemical; design: key to Vmax, Michaelis-Menten best-fit value, Fig7 / Vmax, Michaelis-Menten best-fit value, Fig8: Vmax expressed as cpm (averages of cycles 2–4)
T1 construct: full-length human PRMT7 (residues 1–692); 34693; host or cells: E. coli BL21 DE3
T1 sequence (Q9NVM4 1-692): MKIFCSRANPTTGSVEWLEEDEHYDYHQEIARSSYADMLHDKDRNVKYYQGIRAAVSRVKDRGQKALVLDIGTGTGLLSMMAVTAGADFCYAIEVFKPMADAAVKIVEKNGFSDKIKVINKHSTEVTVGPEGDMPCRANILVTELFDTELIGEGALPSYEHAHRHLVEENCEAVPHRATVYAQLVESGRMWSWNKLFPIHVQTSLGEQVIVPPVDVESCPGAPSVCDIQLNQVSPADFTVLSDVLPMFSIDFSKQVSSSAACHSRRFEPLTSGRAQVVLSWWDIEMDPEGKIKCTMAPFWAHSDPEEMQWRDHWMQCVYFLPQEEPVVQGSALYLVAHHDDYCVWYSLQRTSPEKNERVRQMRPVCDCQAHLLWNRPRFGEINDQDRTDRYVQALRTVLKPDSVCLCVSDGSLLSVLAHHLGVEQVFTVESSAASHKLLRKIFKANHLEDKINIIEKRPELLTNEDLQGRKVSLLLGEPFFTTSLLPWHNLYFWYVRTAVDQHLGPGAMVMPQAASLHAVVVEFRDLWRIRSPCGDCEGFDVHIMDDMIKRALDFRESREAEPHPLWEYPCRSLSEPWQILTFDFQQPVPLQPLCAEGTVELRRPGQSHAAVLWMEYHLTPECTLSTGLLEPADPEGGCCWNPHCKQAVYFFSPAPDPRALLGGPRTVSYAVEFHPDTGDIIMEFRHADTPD
Procedure: (§1) In vitro methylation assays were performed with GST-HsPRMT7, the indicated substrate protein or peptide, and 1.4 μM S-adenosyl-L-[methyl-^3H]methionine ([^3H]-AdoMet; PerkinElmer cat no. NET155V), prepared from diluting a stock of 7.0 μM [^3H]-AdoMet (81.9 Ci/mmol, 1 mCi/mL in 9:1 10 mM H2SO4:EtOH, v/v) in 10 mM HCl. All reactions were performed using distilled water buffered with 50 mM potassium HEPES, pH 9.5 and 1 mM DTT, reaching a final reaction volume of 30 μL. The reactions were initiated by adding [^3H]-AdoMet to a final concentration of 0.14 μM. Control reactions (enzyme-only, substrate-only) contained distilled water instead of substrate or GST-HsPRMT7, respectively. After initiation with [^3H]-AdoMet, all reactions analyzed via P81 phosphocellulose filter paper assay were incubated in a water bath at 25°C unless otherwise indicated for the specified time periods and were terminated with 0.5 μL 100% (w/v) trifluoroacetic acid (TFA). P81 assays performed at t = 0 were individually terminated immediately following initiation. Samples analyzed via SDS-PAGE were incubated at 4°C for 24 hours and were quenched by adding 5x SDS sample loading buffer (250 mM Tris-HCl, pH 6.8; 10% SDS, 30% glycerol, 10% β-mercaptoethanol, 0.2% bromophenol blue), followed by heating at 97°C for 3 min.
(§2) In vitro methylation assays with GST-HsPRMT7, selected methyl-accepting substrates, and [^3H]-AdoMet were set up as described previously and performed in triplicate. Following incubation at 25°C unless otherwise indicated for the time periods specified, all samples were quenched with 0.5 μL 100% TFA and centrifuged at 9,300 g for 10 seconds in an Eppendorf centrifuge (Model 5417C). 1 cm^2 pieces of P81 phosphocellulose filter paper (LabAlley catalog no. 05-717-2A) were spotted with 25 μL from each reaction mixture and set to dry overnight. The following day, all filter paper pieces were washed three times with 50 mM sodium bicarbonate solution, pH 9.0, and dried again in liquid scintillation vials. After 5 mL of Safety Solve fluor (RPI industries) was added to each vial, [^3H] radioactivity in each sample was quantified via liquid scintillation counter (Beckman LS6500) for four total cycles at 5 minutes per sample. All data presented are expressed as averages of the cpm from cycles 2–4.
(§3) Statistical analyses were performed using the “Analyze Data” function on GraphPad Prism v.8.0.1. To determine statistical significance, unpaired homoscedastic two-tailed Student’s t tests were performed with significance level α = 0.05 with the relevant data. To obtain apparent km and Vmax values, kinetic data were analyzed by non-linear regression using the Michaelis-Menten equation.

[2] = target: T1, GST-HsPRMT7; experiment: P81 phosphocellulose filter paper methylation assay with peptide substrates (cpm, end point and time course); format: biochemical; details: 10 μM peptide
Procedure: as §1, §2, §3

[3] = test system: human PRMT7; details: addition of 50 mM NaCl or KCl; cited from earlier work
Procedure: Comparatively, a previous study of ionic strength in human HEK293 cells estimates the intracellular concentration of potassium ions to be about 120–140 mM in human cells. As such, our results in Fig 7 led us to question whether this dramatic decrease in activity may be associated with a loss of either substrate-enzyme binding affinity or catalytic activity. || We confirm that human PRMT7 activity is quite sensitive to changes in the RXR target sequence in the substrate protein. […] The exquisite specificity of PRMT7 toward the basic RXR motif can be contrasted to the much broader speci ...

[4] = test system: PRMT9; details: methylation of SF3B2 at Arg508 (505-CFKRKYL-511); cited from earlier work
Description: We confirm that human PRMT7 activity is quite sensitive to changes in the RXR target sequence in the substrate protein. […] The exquisite specificity of PRMT7 toward the basic RXR motif can be contrasted to the much broader speci ...

Row | Molecule | Km ([1]; + 130 mM KCl, 5 μg GST-HsPRMT7, 0.14 μM [3H]-AdoMet, 60 min, 25°C, GraphPad Prism fit, read-out: Km, Michaelis-Menten best-fit value, Fig8) | Km ([1]; +130 mM KCl, apparent km, 5 μg GST-HsPRMT7, various peptide concentrations, 0.14 μM [3H]-AdoMet, 60 min, 25°C, pH 9.5, Michaelis-Menten fit, triplicates (Fig 8), read-out: km) | Km ([1]; no added salt, apparent km of peptide substrate, 5 μg GST-HsPRMT7, various peptide concentrations, 0.14 μM [3H]-AdoMet, 60 min, 25°C, pH 9.5, Michaelis-Menten fit, triplicates (Fig 8), read-out: km) | Vmax, Michaelis-Menten best-fit value, Fig8 ([1]; no salt, 5 μg GST-HsPRMT7, 0.14 μM [3H]-AdoMet, 60 min, 25°C, GraphPad Prism fit) | Km ([1]; no salt, 5 μg GST-HsPRMT7, 0.14 μM [3H]-AdoMet, 60 min, 25°C, GraphPad Prism fit, read-out: Km, Michaelis-Menten best-fit value, Fig8) | increase of apparent km on adding 130 mM KCl ([1]; with vs without 130 mM KCl (Fig 8, Table 2)) | change of Vmax after adding 130 mM KCl ([1]; with vs without 130 mM KCl (Fig 8, Table 2), in words) | methylation activity ([2]; 5 μg GST-HsPRMT7, 0.14 μM [3H]-AdoMet, 25°C, 1 hour (Fig 4), approximate) | methylation activity (maximum value) ([2]; 5 μg GST-HsPRMT7, 0.14 μM [3H]-AdoMet, 25°C, t = 120 min (Fig 6), approximate) | methylation activity (maximum) ([2]; 5 μg GST-HsPRMT7, 0.14 μM [3H]-AdoMet, 25°C, t = 3 hours (Fig 4), approximate) | GST-HsPRMT7 methylation activity ([2]; 5 μg GST-HsPRMT7, 0.14 μM [3H]-AdoMet, 40 min, 25°C (Fig 3), in words) | PRMT7 methylation activity ([2]; 5 μg GST-HsPRMT7, 0.14 μM [3H]-AdoMet, 20 h, 4°C (Fig 5), in words) | Mean of GST-HsPRMT7 + peptide, Fig3 ([2]; mean of n = 3, 40 min, 25°C) | Difference between means ± SEM vs peptide only, Fig3 ([2]; n = 3, 40 min, 25°C, SEM) | change of GST-HsPRMT7 activity on addition of salt [3] | Km [4]
1 | Ac-KKDGKKRKRSRKESY-NH2 [Hs H2B (23–37), synthetic peptide of amino acids 23–37 of human histone H2B, PRMT7 substrate used as positive control, reference compound] | 16.8 µM | 17 µM | 0.6 µM | 17053 | 0.558 µM | 30 fold | relatively unchanged | approximately 6,000 cpm | about 4,000 cpm | approximately 8,000 cpm | highest | highest PRMT7 methylation activity | 1604 cpm | 1523 ± 86.54 cpm | decreases by half | 
2 | SF3B2: splicing factor SF3B2, methylated by PRMT9 at Arg508 (protein, UniProt Q13435 1-895, looked up) Splicing factor 3B subunit 2: MATEHPEPPKAELQLPPPPPPGHYGAWAAQELQAKLAEIGAPIQGNREELVERLQSYTRQTGIVLNRPVLRGEDGDKAAPPPMSAQLPGIPMPPPPLGLPPLQPPPPPPPPPPGLGLGFPMAHPPNLGPPPPLRVGEPVALSEEERLKLAQQQAALLMQQEERAKQQGDHSLKEHELLEQQKRAAVLLEQERQQEIAKMGTPVPRPPQDMGQIGVRTPLGPRVAAPVGPVGPTPTVLPMGAPVPRPRGPPPPPGDENREMDDPSVGPKIPQALEKILQLKESRQEEMNSQQEEEEMETDARSSLGQSASETEEDTVSVSKKEKNRKRRNRKKKKKPQRVRGVSSESSGDREKDSTRSRGSDSPAADVEIEYVTEEPEIYEPNFIFFKRIFEAFKLTDDVKKEKEKEPEKLDKLENSAAPKKKGFEEEHKDSDDDSSDDEQEKKPEAPKLSKKKLRRMNRFTVAELKQLVARPDVVEMHDVTAQDPKLLVHLKATRNSVPVPRHWCFKRKYLQGKRGIEKPPFELPDFIKRTGIQEMREALQEKEEQKTMKSKMREKVRPKMGKIDIDYQKLHDAFFKWQTKPKLTIHGDLYYEGKEFETRLKEKKPGDLSDELRISLGMPVGPNAHKVPPPWLIAMQRYGPPPSYPNLKIPGLNSPIPESCSFGYHAGGWGKPPVDETGKPLYGDVFGTNAAEFQTKTEEEEIDRTPWGELEPSDEESSEEEEEEESDEDKPDETGFITPADSGLITPGGFSSVPAGMETPELIELRKKKIEEAMDGSETPQLFTVLPEKRTATVGGAMMGSTHIYDMSTVMSRKGPAPELQGVEVALAPEELELDPMAMTQKYEEHVREQQAQVEKEDFSDMVAEHAAKQKQKKRKAQPQDSRGGSKKYKEFKF |  |  |  |  |  |  |  |  |  |  |  |  |  |  |  | 0.08 µM
